Assay results as given in the supplement of paper PMC10307832.

Key:
Assay in all cases: relative viability (nuclei count vs DMSO), 5 days (fraction); higher = more cells survive
[1] = compound: CN(C)CC1=CC(=CC=C1)N=C(C2=CC=CC=C2)C3=C(NC4=C3C=CC(=C4)C(=O)N(C)C)O + Cc1nc(Nc2ncc(C(=O)Nc3c(C)cccc3Cl)s2)cc(N2CCN(CCO)CC2)n1 [Dasatinib] (partner 0.075 µM)
How it was run: (§1)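 Lung cancer cell lines were pin-tool dosed in 1536-well plates on the day after seeding, with either a lone drug or a fixed anchor-drug dose plus five library-drug doses (not always all listed) in √10 steps. Nuclei were counted on 4× images after 5 days. Relative viability is the ratio of treated-well to vehicle-well nuclei counts, with each value a median of duplicate plates.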

[2] = compound: CN(C)CC1=CC(=CC=C1)N=C(C2=CC=CC=C2)C3=C(NC4=C3C=CC(=C4)C(=O)N(C)C)O + Nc1nc2[nH]cc(CCc3ccc(C(=O)N[C@@H](CCC(=O)O)C(=O)O)cc3)c2c(=O)[nH]1 [Pemetrexed] (partner 0.2 µM)
How it was run: as §1

[3] = compound: CN(C)CC1=CC(=CC=C1)N=C(C2=CC=CC=C2)C3=C(NC4=C3C=CC(=C4)C(=O)N(C)C)O + C[C@@H](Oc1cc(-c2cnn(C3CCNCC3)c2)cnc1N)c1c(Cl)ccc(F)c1Cl [Crizotinib] (partner 1 µM)
How it was run: as §1

[4] = compound: CN(C)CC1=CC(=CC=C1)N=C(C2=CC=CC=C2)C3=C(NC4=C3C=CC(=C4)C(=O)N(C)C)O + CS(=O)(=O)CCNCc1ccc(-c2ccc3ncnc(Nc4ccc(OCc5cccc(F)c5)c(Cl)c4)c3c2)o1 [Lapatinib] (partner 2 µM)
How it was run: as §1

| Cell Line | relative viability ([1]; first compound 0.08 µM) | relative viability ([1]; first compound 0.253 µM) | relative viability ([1]; first compound 0.8 µM) | relative viability ([1]; first compound 2.53 µM) | relative viability ([1]; first compound 8 µM) | relative viability ([2]; first compound 0.08 µM) | relative viability ([2]; first compound 0.253 µM) | relative viability ([2]; first compound 0.8 µM) | relative viability ([2]; first compound 2.53 µM) | relative viability ([2]; first compound 8 µM) | relative viability ([3]; first compound 0.08 µM) | relative viability ([3]; first compound 0.253 µM) | relative viability ([3]; first compound 0.8 µM) | relative viability ([3]; first compound 2.53 µM) | relative viability ([3]; first compound 8 µM) | relative viability ([4]; first compound 0.08 µM) | relative viability ([4]; first compound 0.253 µM) | relative viability ([4]; first compound 0.8 µM) | relative viability ([4]; first compound 2.53 µM) | relative viability ([4]; first compound 8 µM) |
| --- | --- | --- | --- | --- | --- | --- | --- | --- | --- | --- | --- | --- | --- | --- | --- | --- | --- | --- | --- | --- |
| HARA | 0.227 | 0.306 | 0.231 | 0.258 | 0.241 | 0.214 | 0.234 | 0.203 | 0.291 | 0.228 | 1.02 | 1.02 | 1.05 | 1.02 | 1.11 | 0.794 | 0.842 | 0.686 | 0.803 | 0.744 |
| LOU-NH91 | 0.572 | 0.552 | 0.485 | 0.539 | 0.503 | 0.383 | 0.367 | 0.465 | 0.349 | 0.465 | 0.777 | 0.723 | 0.689 | 0.746 | 0.712 | 0.721 | 0.836 | 0.75 | 0.743 | 0.697 |
| LXF-289 | 0.203 | 0.216 | 0.246 | 0.242 | 0.205 | 0.937 | 0.836 | 0.904 | 0.885 | 0.827 | 0.871 | 0.762 | 0.758 | 0.773 | 0.757 | 0.888 | 0.887 | 0.893 | 0.86 | 0.815 |
| NCI-H1666 | 0.826 | 0.836 | 0.907 | 0.747 | 0.843 | 0.774 | 0.909 | 0.825 | 0.886 | 1.01 | 1.24 | 1.04 | 0.933 | 1.14 | 1.13 | 0.868 | 0.616 | 0.887 | 0.668 | 0.774 |
| SK-LU-1 | 0.185 | 0.199 | 0.188 | 0.196 | 0.163 | 1.01 | 0.941 | 1.03 | 0.961 | 0.781 | 1 | 1.08 | 0.982 | 0.825 | 0.613 | 0.814 | 0.878 | 0.831 | 0.747 | 0.836 |
| NCI-H2228 | 0.518 | 0.484 | 0.479 | 0.424 | 0.412 | 0.312 | 0.36 | 0.339 | 0.33 | 0.353 | 0.406 | 0.505 | 0.442 | 0.432 | 0.361 | 1.06 | 1.13 | 1.19 | 0.704 | 0.846 |
